EP1022029A1, “NOOTROPIC AGENT” (priority 1997, dated 1999)

Assays:
[1] = molecular target: T1, α7 receptor (Rattus norvegicus, UniProt Q05941); assay: ACh-evoked currents in α7 receptors expressed in Xenopus oocytes (two-electrode voltage clamp); type: cell-based; details: for % of the original amplitude (Ach-evoked current): treatment as labelled, nefiracetam 1 µM, GF109203X 100 nM, peptides co-expressed, Mean ± SD, n = 6 to 8; for normalized response (%): nef(-), n=5
T1 construct: expressed in transfected cells; host or cells: Xenopus oocytes injected with in vitro transcribed mRNA
Protocol: Two-electrode voltage-clamp technique was used to record expression α4β2 or α7 receptors in oocytes. […] The holding voltage was -30 or -60 mV for α4β2-nAChR or α7-nAChR, respectively. Downward directions correspond to inward currents.
(§1) mRNAs for the rat α4β2 receptor and α7 receptor, GLUR1, 2, 3 receptors, and NP152 and NP153 were constructed as described previously. Xenopus oocytes were manually separated from the ovary, and subjected to treatment with collagenase (0.5 mg/ml). Thereafter, the treated oocytes were incubated overnight in Barth's solution (in mM, 88 NaCl, 1 KCl, 2.4 NaHCO3, 0.82 MgSO4, 0.33 […], 0.41 CaCl2, and 7.5 Tris; pH 7.6). The oocytes were injected with the α4β2 or α7 receptor mRNA and incubated at 18°C. In some cases, NP152 and NP153 were co-expressed with the α4β2 and α7 receptors. The injected oocytes were incubated and transferred to a recording chamber 2-7 days after incubation and continuously superfused at room temperature (20-22°C) with a standard frog Ringer's solution [in mM: 115 NaCl, 2 KCl, 1.8 CaCl2, 5 HEPES; pH 7.0]. To remove the effect of endogenous muscarinic ACh receptor, 1 µM atropine was added to the extracellular solution. ACh-evoked currents were recorded by use of two-electrode voltage clamp techniques and an amplifier (GeneClamp-500, Axon Instrument, Inc. USA). The currents were analyzed on a microcomputer by pClamp software (Axon Instrument, Inc.; Version 6). From the results, an assessment was made as to whether nefiracetam actually acts on the nACh receptors.

[2] = molecular target: T2, α4β2 receptor (Rattus norvegicus, UniProt P09483+P12390); assay: ACh-evoked currents in α4β2 receptors expressed in Xenopus oocytes (two-electrode voltage clamp); type: cell-based; details: for % of the original amplitude (Ach-evoked current): treatment as labelled, nefiracetam 1 µM, GF109203X 100 nM, peptides co-expressed, Mean ± SD, n = 6 to 8; for normalized response (%): nef(-), n=5
T2 construct: expressed in transfected cells; host or cells: Xenopus oocytes injected with in vitro transcribed mRNA
Protocol: Two-electrode voltage-clamp technique was used to record expression α4β2 or α7 receptors in oocytes. ACh (100 µM) was applied to a single oocyte in the presence or absence of α-BuTX (50 nM) or MCA (3 µM). The holding voltage was -30 or -60 mV for α4β2-nAChR or α7-nAChR, respectively. Downward directions correspond to inward currents.
as §1

[3] = test system: postsynaptic potentials evoked from the hippocampal CA1 region; assay: Postsynaptic potentials recorded in the CA1 pyramidal cell layer of rat hippocampal slices; type: cell-based; details: Rattus norvegicus, APV 100 µM alone, -10 to -1 min before nefiracetam; Time (min) in c0; n=5; read-out: Postsynaptic potential (% of original amplitude)
[4] = test system: glutamate release from hippocampal slices; type: cell-based, guinea pig; details: St (ES+) electrical stimulation; nefiracetam 1 µM, tetrodotoxin 0.5 µM, α-bungarotoxin 50 nM, mecamylamine 3 µM

T2 sequence (P09483 31-630): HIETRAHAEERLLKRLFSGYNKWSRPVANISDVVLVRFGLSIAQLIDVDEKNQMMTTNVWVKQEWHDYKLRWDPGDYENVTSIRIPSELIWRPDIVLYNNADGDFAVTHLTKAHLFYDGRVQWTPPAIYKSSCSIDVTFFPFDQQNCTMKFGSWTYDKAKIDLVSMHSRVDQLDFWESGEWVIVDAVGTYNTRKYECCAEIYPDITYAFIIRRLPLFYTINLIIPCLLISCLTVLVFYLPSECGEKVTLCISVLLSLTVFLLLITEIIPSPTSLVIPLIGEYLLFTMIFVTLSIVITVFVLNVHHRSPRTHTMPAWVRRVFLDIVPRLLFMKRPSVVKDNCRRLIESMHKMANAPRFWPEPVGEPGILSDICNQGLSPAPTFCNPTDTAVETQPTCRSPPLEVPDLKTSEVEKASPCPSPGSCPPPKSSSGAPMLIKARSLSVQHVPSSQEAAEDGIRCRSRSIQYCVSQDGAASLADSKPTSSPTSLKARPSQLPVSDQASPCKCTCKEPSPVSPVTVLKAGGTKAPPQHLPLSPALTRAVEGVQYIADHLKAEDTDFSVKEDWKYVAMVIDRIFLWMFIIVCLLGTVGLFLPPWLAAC
T2 sequence (P12390 25-500): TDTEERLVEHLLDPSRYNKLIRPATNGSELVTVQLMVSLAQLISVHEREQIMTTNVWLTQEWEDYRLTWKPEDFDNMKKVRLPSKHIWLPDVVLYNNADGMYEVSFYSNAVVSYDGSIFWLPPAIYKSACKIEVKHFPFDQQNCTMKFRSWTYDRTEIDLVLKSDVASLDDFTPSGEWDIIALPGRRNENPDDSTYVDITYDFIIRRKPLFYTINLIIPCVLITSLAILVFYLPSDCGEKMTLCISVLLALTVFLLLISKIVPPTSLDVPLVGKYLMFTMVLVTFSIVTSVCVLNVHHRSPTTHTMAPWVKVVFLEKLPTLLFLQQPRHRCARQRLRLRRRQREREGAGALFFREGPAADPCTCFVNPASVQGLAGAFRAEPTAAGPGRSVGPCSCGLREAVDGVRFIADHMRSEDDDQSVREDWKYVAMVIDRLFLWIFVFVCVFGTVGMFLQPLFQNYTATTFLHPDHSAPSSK
T1 sequence (Q05941 23-502): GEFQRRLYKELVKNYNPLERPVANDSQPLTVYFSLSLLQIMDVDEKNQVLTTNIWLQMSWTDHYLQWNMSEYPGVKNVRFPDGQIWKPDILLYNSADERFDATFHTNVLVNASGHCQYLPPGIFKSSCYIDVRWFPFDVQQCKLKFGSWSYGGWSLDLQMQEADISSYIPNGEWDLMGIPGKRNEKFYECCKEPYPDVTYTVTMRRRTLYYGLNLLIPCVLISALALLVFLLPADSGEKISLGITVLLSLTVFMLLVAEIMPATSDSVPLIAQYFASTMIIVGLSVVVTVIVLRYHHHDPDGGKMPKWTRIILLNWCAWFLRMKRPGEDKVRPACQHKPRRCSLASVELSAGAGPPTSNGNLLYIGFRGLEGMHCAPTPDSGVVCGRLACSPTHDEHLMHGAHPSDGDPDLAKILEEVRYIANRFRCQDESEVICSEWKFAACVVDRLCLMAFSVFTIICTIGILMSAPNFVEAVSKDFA

CN(C)CCCn1cc(C2=C(c3c[nH]c4ccccc34)C(=O)NC2=O)c2ccccc21 [GF109203X, reference compound]
% of the original amplitude (Ach-evoked current) [1]: 102.2 ± 9.6%
% of the original amplitude (Ach-evoked current) [2]: 79.3 ± 15%

CC(=O)OCC[N+](C)(C)C [ACh, reference compound]
normalized response (%) ([1]; ACh 0.1 µM): 0%
normalized response (%) ([1]; ACh 1 µM): 0.5%
normalized response (%) ([1]; ACh 10 µM): 1%
normalized response (%) ([1]; ACh 100 µM): 28%
normalized response (%) ([1]; ACh 1000 µM): 100%
normalized response (%) ([2]; ACh 0.1 µM): 0%
normalized response (%) ([2]; ACh 1 µM): 3%
normalized response (%) ([2]; ACh 10 µM): 43%
normalized response (%) ([2]; ACh 100 µM): 75%
normalized response (%) ([2]; ACh 1000 µM): 100%

CN[C@@H]1C[C@H]2O[C@@](C)([C@@H]1OC)n1c3ccccc3c3c4c(c5c6ccccc6n2c5c31)C(=O)NC4 [Staurosporine, reference compound]
% of the original amplitude (Ach-evoked current) [1]: 101 ± 8%
% of the original amplitude (Ach-evoked current) [2]: 90 ± 8%

O=S(=O)(NCCNCC=Cc1ccc(Br)cc1)c1cccc2cnccc12 [H89, N-[2-(p-Bromocinnamylamino)ethyl]-5-isoquinolinesulfonamide · 2HCl, reference compound]
% of the original amplitude (Ach-evoked current) [1]: 99.4 ± 5.8%
% of the original amplitude (Ach-evoked current) [2]: 98.8 ± 12%

N[C@H](CCCP(=O)(O)O)C(=O)O [APV, D-2-amino-5-phosphonovaleric acid, reference compound]
activity at 100 µM [3]: 87 ± 7%

Nc1nc2c(ncn2[C@@H]2O[C@H](COP(=O)(O)OP(O)(O)=S)[C@@H](O)[C@H]2O)c(=O)[nH]1 [GDPβS, reference compound]
% of the original amplitude (Ach-evoked current) [1]: 100 ± 11%
% of the original amplitude (Ach-evoked current) [2]: 96 ± 10%

CNC1(C)C2CCC(C2)C1(C)C (stereo not drawn) [mecamylamine, reference compound]
Amount of released glutamate [4]: 2.45 ± 0.3 (c) nmol/mg protein/10min.
effect on ACh-evoked current (Fig. 3) ([2]; MCA 3 µM, ACh 100 µM, holding voltage -30 mV): strongly inhibit
